Experimental data taken from PubChem BioAssay (NCI).
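In this assay, cells in 96-well plates receive the compound at five concentrations for 48 hours. Endpoints are linearly interpolated between the surrounding concentrations. The concentration for full growth arrest is given as TGI.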

Key:
Assay in all cases: NCI tumour cell line growth inhibition, 48 h
RPMI-8226 leukemia = test system: RPMI-8226 leukemia
COLO 205 colon = test system: COLO 205 colon
OVCAR-8 ovarian = test system: OVCAR-8 ovarian
MDA-MB-231 breast = test system: MDA-MB-231 breast
IGROV1 ovarian = test system: IGROV1 ovarian
SN12C renal = test system: SN12C renal
T-47D breast = test system: T-47D breast
DU-145 prostate = test system: DU-145 prostate
CAKI-1 renal = test system: CAKI-1 renal
UACC-257 melanoma = test system: UACC-257 melanoma
MDA-MB-435 = test system: MDA-MB-435
LOX IMVI melanoma = test system: LOX IMVI melanoma
K-562 leukemia = test system: K-562 leukemia
HCT-116 colon = test system: HCT-116 colon
MOLT-4 leukemia = test system: MOLT-4 leukemia
M14 melanoma = test system: M14 melanoma
SR leukemia = test system: SR leukemia
SK-MEL-5 melanoma = test system: SK-MEL-5 melanoma
HL-60(TB) leukemia = test system: HL-60(TB) leukemia
SF-295 CNS = test system: SF-295 CNS
UACC-62 melanoma = test system: UACC-62 melanoma
HOP-62 NSCLC = test system: HOP-62 NSCLC
NCI-H522 lung = test system: NCI-H522 lung
CCRF-CEM leukemia = test system: CCRF-CEM leukemia
MCF7 breast = test system: MCF7 breast
NCI-H23 lung = test system: NCI-H23 lung
NCI-H226 lung = test system: NCI-H226 lung
HT29 colon = test system: HT29 colon
EKVX NSCLC = test system: EKVX NSCLC
786-0 renal = test system: 786-0 renal
MALME-3M melanoma = test system: MALME-3M melanoma
HS 578T breast = test system: HS 578T breast
OVCAR-5 ovarian = test system: OVCAR-5 ovarian
U251 CNS = test system: U251 CNS
OVCAR-3 ovarian = test system: OVCAR-3 ovarian
MDA-N = test system: MDA-N
SF-539 CNS = test system: SF-539 CNS
PC-3 prostate = test system: PC-3 prostate
SW-620 colon = test system: SW-620 colon
HCT-15 colon = test system: HCT-15 colon
UO-31 renal = test system: UO-31 renal
SF-268 CNS = test system: SF-268 CNS
SNB-19 CNS = test system: SNB-19 CNS
TK-10 renal = test system: TK-10 renal
A498 renal = test system: A498 renal
SK-MEL-28 melanoma = test system: SK-MEL-28 melanoma
HCC-2998 colon = test system: HCC-2998 colon
KM12 colon = test system: KM12 colon
A549 NSCLC = test system: A549 NSCLC
SK-OV-3 ovarian = test system: SK-OV-3 ovarian
NCI-H460 lung = test system: NCI-H460 lung
SNB-75 CNS = test system: SNB-75 CNS
OVCAR-4 ovarian = test system: OVCAR-4 ovarian
NCI/ADR-RES ovarian = test system: NCI/ADR-RES ovarian
SK-MEL-2 melanoma = test system: SK-MEL-2 melanoma
ACHN renal = test system: ACHN renal
BT-549 breast = test system: BT-549 breast
HOP-92 NSCLC = test system: HOP-92 NSCLC
RXF 393 renal = test system: RXF 393 renal

Q: For `CC(=O)Nn1cnc(C(=N)C#N)c1N`, which TGI (RPMI-8226 leukemia) is on record?
A: > 100 µM

Q: What about the TGI (COLO 205 colon) of the same compound?
A: > 100 µM

Q: And the TGI (OVCAR-8 ovarian)?
A: > 100 µM

Q: And the TGI (MDA-MB-231 breast)?
A: > 100 µM

Q: And the TGI (IGROV1 ovarian)?
A: > 100 µM

Q: And the TGI (SN12C renal)?
A: > 100 µM

Q: What about the TGI (T-47D breast) of the same compound?
A: > 100 µM

Q: And the TGI (DU-145 prostate)?
A: > 100 µM

Q: What about the TGI (CAKI-1 renal) of the same compound?
A: > 100 µM

Q: And the TGI (UACC-257 melanoma)?
A: > 100 µM

Q: What about the TGI (MDA-MB-435) of the same compound?
A: > 100 µM

Q: What about the TGI (LOX IMVI melanoma) of the same compound?
A: > 100 µM

Q: And the TGI (K-562 leukemia)?
A: > 100 µM

Q: And the TGI (HCT-116 colon)?
A: > 100 µM

Q: And the TGI (MOLT-4 leukemia)?
A: > 100 µM

Q: And the TGI (M14 melanoma)?
A: > 100 µM

Q: What about the TGI (SR leukemia) of the same compound?
A: > 100 µM

Q: And the TGI (SK-MEL-5 melanoma)?
A: > 100 µM

Q: And the TGI (HL-60(TB) leukemia)?
A: > 100 µM

Q: And the TGI (SF-295 CNS)?
A: > 100 µM

Q: And the TGI (UACC-62 melanoma)?
A: > 100 µM

Q: And the TGI (HOP-62 NSCLC)?
A: > 100 µM

Q: What about the TGI (NCI-H522 lung) of the same compound?
A: > 100 µM

Q: What about the TGI (CCRF-CEM leukemia) of the same compound?
A: > 100 µM

Q: What about the TGI (MCF7 breast) of the same compound?
A: > 100 µM

Q: What about the TGI (NCI-H23 lung) of the same compound?
A: > 100 µM

Q: What about the TGI (NCI-H226 lung) of the same compound?
A: > 100 µM

Q: And the TGI (HT29 colon)?
A: > 100 µM

Q: What about the TGI (EKVX NSCLC) of the same compound?
A: > 100 µM

Q: What about the TGI (786-0 renal) of the same compound?
A: > 100 µM

Q: And the TGI (MALME-3M melanoma)?
A: > 100 µM

Q: What about the TGI (HS 578T breast) of the same compound?
A: > 100 µM

Q: And the TGI (OVCAR-5 ovarian)?
A: > 100 µM

Q: And the TGI (U251 CNS)?
A: > 100 µM

Q: And the TGI (OVCAR-3 ovarian)?
A: > 100 µM

Q: And the TGI (MDA-N)?
A: > 100 µM

Q: And the TGI (SF-539 CNS)?
A: > 100 µM

Q: And the TGI (PC-3 prostate)?
A: > 100 µM

Q: And the TGI (SW-620 colon)?
A: > 100 µM

Q: And the TGI (HCT-15 colon)?
A: > 100 µM

Q: What about the TGI (UO-31 renal) of the same compound?
A: > 100 µM

Q: And the TGI (SF-268 CNS)?
A: > 100 µM

Q: What about the TGI (SNB-19 CNS) of the same compound?
A: > 100 µM

Q: What about the TGI (TK-10 renal) of the same compound?
A: > 100 µM

Q: What about the TGI (A498 renal) of the same compound?
A: > 100 µM

Q: What about the TGI (SK-MEL-28 melanoma) of the same compound?
A: > 100 µM

Q: What about the TGI (HCC-2998 colon) of the same compound?
A: > 100 µM

Q: And the TGI (KM12 colon)?
A: > 100 µM

Q: And the TGI (A549 NSCLC)?
A: > 100 µM

Q: What about the TGI (SK-OV-3 ovarian) of the same compound?
A: > 100 µM

Q: What about the TGI (NCI-H460 lung) of the same compound?
A: > 100 µM

Q: What about the TGI (SNB-75 CNS) of the same compound?
A: > 100 µM

Q: What about the TGI (OVCAR-4 ovarian) of the same compound?
A: > 100 µM

Q: What about the TGI (NCI/ADR-RES ovarian) of the same compound?
A: > 100 µM

Q: And the TGI (SK-MEL-2 melanoma)?
A: > 100 µM

Q: What about the TGI (ACHN renal) of the same compound?
A: > 100 µM

Q: What about the TGI (BT-549 breast) of the same compound?
A: > 100 µM

Q: Which TGI (HOP-92 NSCLC) does the source give for `Cc1cn(C2CC(N=[N+]=[N-])C(CO)O2)c(=O)n(CCCCBr)c1=O` (stereo not drawn) here?
A: > 100 µM

Q: And the TGI (RPMI-8226 leukemia)?
A: > 100 µM

Q: What about the TGI (COLO 205 colon) of the same compound?
A: > 100 µM

Q: What about the TGI (OVCAR-8 ovarian) of the same compound?
A: > 100 µM

Q: What about the TGI (MDA-MB-231 breast) of the same compound?
A: > 100 µM

Q: What about the TGI (IGROV1 ovarian) of the same compound?
A: > 100 µM

Q: What about the TGI (SN12C renal) of the same compound?
A: > 100 µM

Q: What about the TGI (T-47D breast) of the same compound?
A: > 100 µM

Q: And the TGI (DU-145 prostate)?
A: > 100 µM

Q: And the TGI (CAKI-1 renal)?
A: > 100 µM

Q: And the TGI (UACC-257 melanoma)?
A: > 100 µM

Q: And the TGI (MDA-MB-435)?
A: > 100 µM

Q: And the TGI (LOX IMVI melanoma)?
A: > 100 µM

Q: What about the TGI (K-562 leukemia) of the same compound?
A: > 100 µM

Q: And the TGI (HCT-116 colon)?
A: > 100 µM

Q: And the TGI (MOLT-4 leukemia)?
A: > 100 µM

Q: What about the TGI (M14 melanoma) of the same compound?
A: > 100 µM

Q: And the TGI (SF-295 CNS)?
A: > 100 µM

Q: And the TGI (UACC-62 melanoma)?
A: > 100 µM

Q: What about the TGI (HOP-62 NSCLC) of the same compound?
A: > 100 µM

Q: What about the TGI (NCI-H522 lung) of the same compound?
A: > 100 µM

Q: What about the TGI (CCRF-CEM leukemia) of the same compound?
A: > 100 µM

Q: What about the TGI (MCF7 breast) of the same compound?
A: > 100 µM

Q: What about the TGI (NCI-H23 lung) of the same compound?
A: > 100 µM

Q: What about the TGI (NCI-H226 lung) of the same compound?
A: > 100 µM

Q: And the TGI (HT29 colon)?
A: > 100 µM

Q: And the TGI (EKVX NSCLC)?
A: > 100 µM

Q: What about the TGI (786-0 renal) of the same compound?
A: > 100 µM

Q: And the TGI (MALME-3M melanoma)?
A: > 100 µM

Q: And the TGI (HS 578T breast)?
A: > 100 µM

Q: And the TGI (OVCAR-5 ovarian)?
A: > 100 µM

Q: And the TGI (U251 CNS)?
A: 44.6 µM

Q: What about the TGI (OVCAR-3 ovarian) of the same compound?
A: > 100 µM

Q: What about the TGI (MDA-N) of the same compound?
A: > 100 µM

Q: And the TGI (SF-539 CNS)?
A: > 100 µM

Q: What about the TGI (PC-3 prostate) of the same compound?
A: > 100 µM

Q: What about the TGI (SW-620 colon) of the same compound?
A: > 100 µM

Q: What about the TGI (HCT-15 colon) of the same compound?
A: > 100 µM

Q: And the TGI (UO-31 renal)?
A: > 100 µM

Q: What about the TGI (SF-268 CNS) of the same compound?
A: > 100 µM

Q: And the TGI (SNB-19 CNS)?
A: > 100 µM

Q: What about the TGI (TK-10 renal) of the same compound?
A: > 100 µM

Q: What about the TGI (A498 renal) of the same compound?
A: > 100 µM

Q: What about the TGI (SK-MEL-28 melanoma) of the same compound?
A: > 100 µM

Q: What about the TGI (HCC-2998 colon) of the same compound?
A: > 100 µM

Q: And the TGI (KM12 colon)?
A: > 100 µM

Q: And the TGI (A549 NSCLC)?
A: > 100 µM

Q: What about the TGI (RXF 393 renal) of the same compound?
A: > 100 µM

Q: What about the TGI (SK-OV-3 ovarian) of the same compound?
A: > 100 µM

Q: What about the TGI (NCI-H460 lung) of the same compound?
A: > 100 µM

Q: And the TGI (SNB-75 CNS)?
A: > 100 µM

Q: What about the TGI (OVCAR-4 ovarian) of the same compound?
A: > 100 µM

Q: What about the TGI (NCI/ADR-RES ovarian) of the same compound?
A: > 100 µM

Q: What about the TGI (SK-MEL-2 melanoma) of the same compound?
A: > 100 µM

Q: What about the TGI (ACHN renal) of the same compound?
A: > 100 µM

Q: And the TGI (BT-549 breast)?
A: > 100 µM
